ChEMBL document CHEMBL1201862, “PubChem BioAssay data set” (2004)
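These data come from cells grown in 96-well plates and exposed to compound for 48 hours at five concentrations. GI50 marks 50% less growth.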 The source made the active and inactive calls. No stated cut-off is given here; in the data, active = GI50 up to about 1.1 µM and inactive = higher.

Experiments:
Test in all cases: NCI anticancer screen, dose series, 48 h
[1] = test system: BT-549
[2] = test system: NCI-H460
[3] = test system: M14
[4] = test system: HL-60
[5] = test system: MDA-N
[6] = test system: SR
[7] = test system: UACC-257
[8] = test system: UO-31
[9] = test system: Malme-3M
[10] = test system: UACC-62
[11] = test system: OVCAR-8
[12] = test system: OVCAR-5
[13] = test system: SF-295
[14] = test system: OVCAR-3
[15] = test system: 786-0
[16] = test system: NCI-H23
[17] = test system: MOLT-4
[18] = test system: A498
[19] = test system: IGROV-1
[20] = test system: NCI-H226
[21] = test system: SNB-19
[22] = test system: COLO 205
[23] = test system: MDA-MB-231
[24] = test system: OVCAR-4
[25] = test system: U-251
[26] = test system: SK-MEL-5
[27] = test system: A549
[28] = test system: K562
[29] = test system: SN12C
[30] = test system: T47D
[31] = test system: CAKI-1
[32] = test system: DU-145
[33] = test system: SF-539
[34] = test system: RXF 393
[35] = test system: HT-29
[36] = test system: CCRF-CEM
[37] = test system: SNB-75
[38] = test system: HCT-116
[39] = test system: SW-620
[40] = test system: Hs-578T
[41] = test system: SK-MEL-28
[42] = test system: HOP-92
[43] = test system: SF-268
[44] = test system: MDA-MB-435
[45] = test system: ACHN
[46] = test system: NCI-H522
[47] = test system: KM12
[48] = test system: HOP-62
[49] = test system: TK-10
[50] = test system: SK-OV-3
[51] = test system: PC-3
[52] = test system: HCT-15
[53] = test system: EKVX
[54] = test system: LOX IMVI
[55] = test system: HCC 2998
[56] = test system: MCF7
[57] = test system: SK-MEL-2
[58] = test system: RPMI-8226

## CC1C2CC(CC2O)C1(C)C (stereo not drawn)
[1]
  GI50: > 100 µM (inactive)
[2]
  GI50: > 100 µM (inactive)
[3]
  GI50: > 100 µM (inactive)
[4]
  GI50: > 100 µM (inactive)
[5]
  GI50: > 100 µM (inactive)
[6]
  GI50: > 100 µM (inactive)
[7]
  GI50: > 100 µM (inactive)
[8]
  GI50: > 100 µM (inactive)
[9]
  GI50: > 100 µM (inactive)
[10]
  GI50: > 100 µM (inactive)
[11]
  GI50: > 100 µM (inactive)
[12]
  GI50: > 100 µM (inactive)
[13]
  GI50: > 100 µM (inactive)
[14]
  GI50: > 100 µM (inactive)
[15]
  GI50: > 100 µM (inactive)
[16]
  GI50: > 100 µM (inactive)
[17]
  GI50: > 100 µM (inactive)
[18]
  GI50: > 100 µM (inactive)
[19]
  GI50: > 100 µM (inactive)
[20]
  GI50: > 100 µM (inactive)
[21]
  GI50: > 100 µM (inactive)
[22]
  GI50: > 100 µM (inactive)
[23]
  GI50: > 100 µM (inactive)
[24]
  GI50: > 100 µM (inactive)
[25]
  GI50: > 100 µM (inactive)
[26]
  GI50: > 100 µM (inactive)
[27]
  GI50: > 100 µM (inactive)
[28]
  GI50: > 100 µM (inactive)
[29]
  GI50: > 100 µM (inactive)
[30]
  GI50: > 100 µM (inactive)
[31]
  GI50: > 100 µM (inactive)
[32]
  GI50: > 100 µM (inactive)
[33]
  GI50: > 100 µM (inactive)
[34]
  GI50: > 100 µM (inactive)
[35]
  GI50: > 100 µM (inactive)
[36]
  GI50: > 100 µM (inactive)
[37]
  GI50: > 100 µM (inactive)
[38]
  GI50: > 100 µM (inactive)
[39]
  GI50: > 100 µM (inactive)
[40]
  GI50: > 100 µM (inactive)
[41]
  GI50: > 100 µM (inactive)
[42]
  GI50: > 100 µM (inactive)
[43]
  GI50: > 100 µM (inactive)
[44]
  GI50: > 100 µM (inactive)
[45]
  GI50: > 100 µM (inactive)
[46]
  GI50: > 100 µM (inactive)
[47]
  GI50: > 100 µM (inactive)
[48]
  GI50: > 100 µM (inactive)
[49]
  GI50: > 100 µM (inactive)
[50]
  GI50: > 100 µM (inactive)
[51]
  GI50: > 100 µM (inactive)

## CN(C)CCNC(=O)c1cnn(C)c1[N+](=O)[O-]
[1]
  GI50: > 100 µM (inactive)
[2]
  GI50: 77.4 µM (inactive)
[52]
  GI50: > 100 µM
[3]
  GI50: > 100 µM (inactive)
[4]
  GI50: 35.2 µM (inactive)
[5]
  GI50: 41.6 µM (inactive)
[6]
  GI50: > 100 µM (inactive)
[7]
  GI50: 53 µM (inactive)
[8]
  GI50: > 100 µM (inactive)
[9]
  GI50: 18.6 µM (inactive)
[10]
  GI50: 52.4 µM (inactive)
[53]
  GI50: > 100 µM (inactive)
[11]
  GI50: > 100 µM (inactive)
[12]
  GI50: > 100 µM (inactive)
[13]
  GI50: > 100 µM (inactive)
[14]
  GI50: 24.5 µM (inactive)
[15]
  GI50: > 100 µM (inactive)
[16]
  GI50: 73.5 µM (inactive)
[17]
  GI50: > 100 µM (inactive)
[18]
  GI50: > 100 µM (inactive)
[19]
  GI50: > 100 µM (inactive)
[20]
  GI50: > 100 µM (inactive)
[21]
  GI50: > 100 µM (inactive)
[22]
  GI50: 21.6 µM (inactive)
[54]
  GI50: 46.7 µM (inactive)
[23]
  GI50: > 100 µM (inactive)
[24]
  GI50: 76.7 µM (inactive)
[25]
  GI50: > 100 µM (inactive)
[26]
  GI50: 44.5 µM (inactive)
[27]
  GI50: > 100 µM (inactive)
[28]
  GI50: > 100 µM (inactive)
[29]
  GI50: > 100 µM (inactive)
[55]
  GI50: > 100 µM (inactive)
[30]
  GI50: > 100 µM (inactive)
[31]
  GI50: > 100 µM (inactive)
[32]
  GI50: > 100 µM (inactive)
[33]
  GI50: > 100 µM (inactive)
[34]
  GI50: 65.6 µM (inactive)
[35]
  GI50: 33.4 µM (inactive)
[36]
  GI50: > 100 µM (inactive)
[37]
  GI50: > 100 µM (inactive)
[38]
  GI50: 50.9 µM (inactive)
[39]
  GI50: 79.6 µM (inactive)
[40]
  GI50: > 100 µM (inactive)
[41]
  GI50: > 100 µM (inactive)
[43]
  GI50: > 100 µM (inactive)
[56]
  GI50: 63.4 µM (inactive)
[44]
  GI50: > 100 µM (inactive)
[45]
  GI50: > 100 µM (inactive)
[57]
  GI50: > 100 µM (inactive)
[46]
  GI50: > 100 µM (inactive)
[47]
  GI50: 68.1 µM (inactive)
[58]
  GI50: > 100 µM (inactive)
[48]
  GI50: > 100 µM (inactive)
[49]
  GI50: > 100 µM (inactive)
[50]
  GI50: > 100 µM (inactive)
[51]
  GI50: 36.1 µM (inactive)
